# Structures can show the parent of a compound that is named as a salt.
# Target: human SGLT2 (Homo sapiens (Human), UniProt P31639)
# Assay: Inhibitory effects on human SGLT2 activities (14C-AMG uptake, sodium-dependent glucose transport assay)
# Format: cell-based
# Conditions: CHO cells stably expressing hSGLT2, 37° C., 2 h, single determinations
# Excerpt: Test 1: Cloning and Cell Line Construction for Human SGLT2
# Human SGLT2 (hSGLT2) gene was amplified by PCR from cDNA-Human Adult Normal Tissue Kidney (Invitrogen). The hSGLT2 sequence was cloned into pcDNA3.1(+) for mammalian expression and stably transfected into chinese hamster ovary (CHO) cells. SGLT2-expressing clones were selected based on resistance to G418 antibiotic (Geneticin) and activity in the ^14C-α-methyl-D-glucopyranoside (^14C-AMG) uptake assay.
# Test 2: Inhibitory Effects on Human SGLT2 Activities
# For sodium-dependent glucose transport assay, cells expressing hSGLT2 were seeded into a 96-well culture plate at a density of 5×10^4 cells/well in RPMI medium 1640 containing 10% fetal bovine serum. The cells were used 1 day after plating. They were incubated in pretreatment buffer (10 mM HEPES, 5 mM Tris, 140 mM choline chloride, 2 mM KCl, 1 mM CaCl2, and 1 mM MgCl2, pH 7.4) at 37° C. for 10 min. They were then incubated in uptake buffer (10 mM HEPES, 5 mM Tris, 140 mM NaCl, 2 mM KCl, 1 mM CaCl2, 1 mM MgCl2, and 1 mM ^14C-nonlabeled AMG pH 7.4) containing ^14C-labeled AMG (8 μM) and the inventive compound or dimethyl sulfoxide (DMSO) vehicle at 37° C. for 2 h. Cells were washed twice with washing buffer (pretreatment buffer containing 10 mM AMG at room temperature) and then the radioactivity was measured using a liquid scintillation counter. IC50 was determined by nonlinear regression analysis using GraphPad PRISM [Katsuno, K. et al. J. Pharmacol. Exp. Ther. 2007, 320, 323-330; Han, S. et al. Diabetes, 2008, 57, 1723-1729].
# Chain of human SGLT2 (P31639 whole entry): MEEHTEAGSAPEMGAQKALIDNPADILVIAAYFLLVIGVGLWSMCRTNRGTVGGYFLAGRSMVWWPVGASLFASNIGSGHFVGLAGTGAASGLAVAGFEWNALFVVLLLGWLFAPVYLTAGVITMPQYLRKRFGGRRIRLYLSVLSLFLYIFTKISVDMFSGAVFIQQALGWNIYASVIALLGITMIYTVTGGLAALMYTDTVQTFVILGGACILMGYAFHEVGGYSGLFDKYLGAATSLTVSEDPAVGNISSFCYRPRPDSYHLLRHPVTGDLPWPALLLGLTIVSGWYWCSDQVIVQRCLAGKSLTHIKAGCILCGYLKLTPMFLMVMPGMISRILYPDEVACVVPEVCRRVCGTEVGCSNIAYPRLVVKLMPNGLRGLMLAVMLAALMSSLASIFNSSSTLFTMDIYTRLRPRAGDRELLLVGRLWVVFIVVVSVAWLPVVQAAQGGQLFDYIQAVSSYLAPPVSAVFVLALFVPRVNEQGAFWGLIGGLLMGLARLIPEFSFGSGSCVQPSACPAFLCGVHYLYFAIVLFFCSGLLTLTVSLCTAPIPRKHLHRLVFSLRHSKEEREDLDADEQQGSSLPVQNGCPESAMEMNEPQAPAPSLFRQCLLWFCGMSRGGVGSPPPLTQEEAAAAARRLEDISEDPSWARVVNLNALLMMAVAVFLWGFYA
row,Structure (SMILES),IC50 [nM]
1,"CC1(C)COc2cc(Cc3cc([C@@H]4O[C@H](CO)[C@@H](O)[C@H](O)[C@H]4O)ccc3Cl)ccc2O1 [Example E064, (2S,3R,4R,5S,6R)-2-(4-Chloro-3-((2,2-dimethyl-2,3-dihydrobenzo[b][1,4]dioxin-6-yl)methyl)phenyl)-6-(hydroxymethyl)-tetrahydro-2H-pyran-3,4,5-triol]",5.78
2,"OC[C@H]1O[C@@H](c2ccc(Cl)c(Cc3ccc4c(c3)CCCC4)c2)[C@H](O)[C@@H](O)[C@@H]1O [Example E060, (2S,3R,4R,5S,6R)-2-(4-Chloro-3-((5,6,7,8-tetrahydronaphthalen-2-yl)methyl)phenyl)-6-(hydroxymethyl)-tetrahydro-2H-pyran-3,4,5-triol]",2.99
3,"CCOc1ccc(Cc2cc([C@@H]3O[C@H](CO)[C@@H](O)[C@H](O)[C@H]3O)cc(-c3ccsc3)c2C)cc1 [Example E089, (2S,3R,4R,5S,6R)-2-(3-(4-Ethoxybenzyl)-4-methyl-5-(thiophen-3-yl)phenyl)-6-(hydroxymethyl)-tetrahydro-2H-pyran-3,4,5-triol]",2.55
4,"CCn1cc2cc(Cc3cc([C@@H]4O[C@H](CO)[C@@H](O)[C@H](O)[C@H]4O)ccc3Cl)ccc2n1 [Example E038, (2S,3R,4R,5S,6R)-2-(4-Chloro-3-((2-ethyl-2H-indazol-5-yl)methyl)phenyl)-6-(hydroxymethyl)tetrahydro-2H-pyran-3,4,5-triol]",1.76
5,"OC[C@H]1O[C@@H](c2cc(Cc3ccc(SC4CC4)cc3)c(Cl)c3c2CCO3)[C@H](O)[C@@H](O)[C@@H]1O [Example E206, (2S,3R,4R,5S,6R)-2-(7-Chloro-6-(4-(cyclopropylthio)benzyl)-2,3-dihydrobenzofuran-4-yl)-6-(hydroxymethyl)tetrahydro-2H-pyran-3,4,5-triol]",1.88
6,"COc1ccc(Cc2cc([C@@H]3O[C@H](CO)[C@@H](O)[C@H](O)[C@H]3O)c3c(c2Cl)CCO3)cc1 [Example E021, (2S,3R,4R,5S,6R)-2-(4-Chloro-5-(4-methoxybenzyl)-2,3-dihydrobenzofuran-7-yl)-6-(hydroxymethyl)tetrahydro-2H-pyran-3,4,5-triol]",1.72
7,"OC[C@H]1O[C@@H](c2ccc(Cl)c(Cc3ccc4c(c3)OCCCO4)c2)[C@H](O)[C@@H](O)[C@@H]1O [Example E029, (2S,3R,4R,5S,6R)-2-(4-Chloro-3-((3,4-dihydro-2H-benzo[b][1,4]dioxepin-7-yl)methyl)phenyl)-6-(hydroxymethyl)tetrahydro-2H-pyran-3,4,5-triol]",4.38
8,"CSc1ccc(C2OCc3ccc([C@@H]4O[C@H](CO)[C@@H](O)[C@H](O)[C@H]4O)cc32)cc1 (stereo partly drawn) [Example E102, (2R,3S,4R,5R,6S)-2-(Hydroxymethyl)-6-(3-(4-(methylthio)phenyl)-1,3-dihydroisobenzofuran-5-yl)-tetrahydro-2H-pyran-3,4,5-triol]",75.7
9,"CCc1ccc(Cc2cc([C@@H]3O[C@H](CO)[C@@H](O)[C@H](O)[C@H]3O)c3c(c2Cl)NCCO3)cc1 [Example E214, (2S,3R,4R,5S,6R)-2-(5-Chloro-6-(4-ethylbenzyl)-3,4-dihydro-2H-benzo[b][1,4]oxazin-8-yl)-6-(hydroxymethyl)tetrahydro-2H-pyran-3,4,5-triol]",3.17
10,"CNCc1ccc(Cc2cc([C@@H]3O[C@H](CO)[C@@H](O)[C@H](O)[C@H]3O)c3c(c2Cl)OCC3)cc1 [Example E183, (2S,3R,4R,5S,6R)-2-(7-Chloro-6-(4-((methylamino)methyl)benzyl)-2,3-dihydrobenzofuran-4-yl)-6-(hydroxymethyl)tetrahydro-2H-pyran-3,4,5-triol trifluoro acetic acid salt]",122
11,"CCOc1ccc(Cc2cc([C@@H]3O[C@H](CO)[C@@H](O)[C@H](O)[C@H]3O)cc(-c3cccc(C#N)c3)c2C)cc1 [Example E087, 3′-(4-Ethoxybenzyl)-2′-methyl-5′-((2S,3R,4R,5S,6R)-3,4,5-trihydroxy-6-(hydroxymethyl)-tetrahydro-2H-pyran-2-yl)biphenyl-3-carbonitrile]",38.9
12,"N#Cc1ccc(Cc2cc([C@@H]3O[C@H](CO)[C@@H](O)[C@H](O)[C@H]3O)c3c(c2Cl)OCC3)cc1 [Example E186, 4-((7-Chloro-4-((2S,3R,4R,5S,6R)-3,4,5-trihydroxy-6-(hydroxymethyl)tetrahydro-2H-pyran-2-yl)-2,3-dihydrobenzofuran-6-yl)methyl)benzonitrile]",6.06
13,"OC[C@H]1O[C@@H](c2cc(Cc3ccc(CN4CC4)cc3)c(Cl)c3c2CCO3)[C@H](O)[C@@H](O)[C@@H]1O [Example E185, (2S,3R,4R,5S,6R)-2-(6-(4-(Aziridin-1-ylmethyl)benzyl)-7-chloro-2,3-dihydrobenzofuran-4-yl)-6-(hydroxymethyl)tetrahydro-2H-pyran-3,4,5-triol trifluoro acetic acid salt]",164
14,"OC[C@H]1O[C@@H](c2ccc(Cl)c(Cc3ccc4c(c3)SCCO4)c2)[C@H](O)[C@@H](O)[C@@H]1O [Example E072, (2S,3R,4R,5S,6R)-2-(4-Chloro-3-((2,3-dihydrobenzo[b][1,4]oxathiin-6-yl)methyl)phenyl)-6-(hydroxymethyl)-tetrahydro-2H-pyran-3,4,5-triol]",1.75
15,"Cc1c(Br)cc([C@@H]2O[C@H](CO)[C@@H](O)[C@H](O)[C@H]2O)cc1Cc1ccc2c(c1)OCCO2 [Example E085, (2S,3R,4R,5S,6R)-2-(3-Bromo-5-((2,3-dihydrobenzo[b][1,4]dioxin-6-yl)methyl)-4-methylphenyl)-6-(hydroxymethyl)-tetrahydro-2H-pyran-3,4,5-triol]",1.82

# Compounds with a lower IC50, results first:
row,IC50 [nM],Structure (SMILES)
1,1.28,"CCOc1ccc(Cc2cc([C@@H]3O[C@H](CO)[C@@H](O)[C@H](O)[C@H]3O)c3c(c2Cl)OCCCO3)cc1 [Example E164, (2S,3R,4R,5S,6R)-2-(9-Chloro-8-(4-ethoxybenzyl)-3,4-dihydro-2H-benzo[b][1,4]dioxepin-6-yl)-6-(hydroxymethyl)tetrahydro-2H-pyran-3,4,5-triol]"
2,1.27,"CCOc1ccc(Cc2cc([C@@H]3O[C@H](CO)[C@@H](O)[C@H](O)[C@H]3O)c3c(c2Cl)CC(C)(C)O3)cc1 [Example E220, (2S,3R,4R,5S,6R)-2-(4-Chloro-5-(4-ethoxybenzyl)-2,2-dimethyl-2,3-dihydrobenzofuran-7-yl)-6-(hydroxymethyl)tetrahydro-2H-pyran-3,4,5-triol]"
3,1.26,"OC[C@H]1O[C@@H](c2cc(Cc3ccc4c(c3)OCCO4)c(C(F)F)c3c2CCC3)[C@H](O)[C@@H](O)[C@@H]1O [Example E108, (2S,3R,4R,5S,6R)-2-(7-(Difluoromethyl)-6-((2,3-dihydrobenzo[b][1,4]dioxin-6-yl)methyl)-2,3-dihydro-1H-inden-4-yl)-6-(hydroxymethyl)tetrahydro-2H-pyran-3,4,5-triol]"
4,1.11,"CN(C)c1ccc(Cc2cc([C@@H]3O[C@H](CO)[C@@H](O)[C@H](O)[C@H]3O)c3c(c2Cl)OCC3)cc1 [Example E190, (2S,3R,4R,5S,6R)-2-(7-Chloro-6-(4-(dimethylamino)benzyl)-2,3-dihydrobenzofuran-4-yl)-6-(hydroxymethyl)tetrahydro-2H-pyran-3,4,5-triol]"
5,1.02,"COc1ccc(Cc2cc([C@@H]3O[C@H](CO)[C@@H](O)[C@H](O)[C@H]3O)c3c(c2Cl)CC(C)O3)cc1 (stereo partly drawn) [Example E131, (2S,3R,4R,5S,6R)-2-(4-Chloro-5-(4-methoxybenzyl)-2-methyl-2,3-dihydrobenzofuran-7-yl)-6-(hydroxymethyl)tetrahydro-2H-pyran-3,4,5-triol]"
6,0.884,"CCc1ccc(Cc2cc([C@@H]3O[C@H](CO)[C@@H](O)[C@H](O)[C@H]3O)c3c(c2Cl)CCO3)cc1 [Example E010, (2S,3R,4R,5S,6R)-2-(4-Chloro-5-(4-ethylbenzyl)-2,3-dihydrobenzofuran-7-yl)-6-(hydroxymethyl)tetrahydro-2H-pyran-3,4,5-triol]"
7,0.783,"CCOc1ccc(Cc2cc([C@@H]3O[C@H](SC)[C@@H](O)[C@H](O)[C@H]3O)c(OC)cc2Cl)cc1 [Example E111, (2S,3R,4R,5S,6R)-2-(4-Chloro-5-(4-ethoxybenzyl)-2-methoxyphenyl)-6-(methylthio)tetrahydro-2H-pyran-3,4,5-triol]"
8,0.685,"CCOc1ccc(Cc2cc([C@@H]3O[C@H](SC)[C@@H](O)[C@H](O)[C@H]3O)c3c(c2Cl)CC(C)O3)cc1 (stereo partly drawn) [Example E145, (2S,3R,4R,5S,6R)-2-(4-Chloro-5-(4-ethoxybenzyl)-2-methyl-2,3-dihydrobenzofuran-7-yl)-6-(methylthio)tetrahydro-2H-pyran-3,4,5-triol]"
9,0.661,"CCc1ccc(Cc2cc([C@@H]3O[C@H](CO)[C@@H](O)[C@H](O)[C@H]3O)c3c(c2Br)CCC3)cc1 [Example E004, (2S,3R,4R,5S,6R)-2-(7-Bromo-6-(4-ethylbenzyl)-2,3-dihydro-1H-inden-4-yl)-6-(hydroxymethyl)tetrahydro-2H-pyran-3,4,5-triol]"
